Data reported in patent EP1247803A2, “Indolinone compounds suitable for modulation of protein kinases” (Sugen, Inc., priority 1996, dated 1998).

How the values were obtained:
PDGF-R = PDGF-R (Homo sapiens, UniProt P09619); test: PDGF-R ELISA; type: cell-based
Excerpt: A PDGF-R ELISA is described in International Patent Publication No. WO 96/40116, published December 19, 1996 by Tang et al.

FLK-1 receptor = target: T1, FLK-1 receptor (Mus musculus, UniProt P35918); test: FLK-1 ELISA (kinase activity of the FLK-1 receptor in FLK-1/NIH3T3 cells, VEGF stimulated); type: cell-based; design: concentration or dose not given beside the values
T1 construct: expressed in transfected cells; host or cells: NIH3T3 C7#3
Experimental: An enzyme linked immunosorbent assay (ELISA) was conducted to measure the catalytic activity of the FLK-1 receptor and more specifically, the inhibition or activation of indolinone compounds on the catalytic activity of the FLK-1 receptor. Specifically, the following assay was conducted to measure catalytic activity of the FLK-1 receptor in FLK-1/NIH3T3 cells.
The materials and protocol for the FLK-1 ELISA assay are as described in International Patent Publication No. WO 96/40116, published December 19, 1996 by Tang et al.
Selected compounds were tested in the FLK-1 ELISA assay.
An ELISA assay was conducted to measure the kinase activity of the FLK-1 receptor and more specifically, the inhibition or activation of protein tyrosine kinase activity on the FLK-1 receptor. Specifically, the following assay was conducted to measure kinase activity of the FLK-1 receptor in FLK-1/NIH3T3 cells.
Materials. The following reagents and supplies were used: • a. […] Cappel goat anti-rabbit IgG (catalog no. 55641); • c. PBS (Gibco Catalog No. 450-1300EB); • d. TBSW Buffer (50 mM Tris (pH 7.2), 150 mM NaCl and 0.1% Tween-20); • e. Ethanolamine stock (10% ethanolamine (pH 7.0), stored at 4°C); • f. HNTG buffer (20mM HEPES buffer (pH 7.5), 150mM NaCl, 0.2% Triton X-100, and 10% glycerol); • g. EDTA (0.5 M (pH 7.0) as a 100X stock); • h. Sodium ortho vanadate (0.5 M as a 100X stock); • i. Sodium pyro phosphate (0.2M as a 100X stock); • j. NUNC 96 well V bottom polypropylene plates (Applied Scientific Catalog No. AS-72092); • k. NIH3T3 C7#3 Cells (FLK-1 expressing cells); • l. DMEM with 1X high glucose L Glutamine (catalog No. 11965-050); • m. FBS, Gibco (catalog no. 16000-028); • n. L-glutamine, Gibco (catalog no. 25030-016); • o. VEGF, PeproTech, Inc. (catalog no. 100-20)(kept as 1 µg/100 µl stock in Milli-Q dH2O and stored at -20°C; • p. Affinity purified anti-FLK-1 antiserum which can be obtained or purified as follows: • 1. Prepare a Tresyl-Activated Agarose/Flk-1-D column by incubating 10 ml of Tresyl-Activated Agarose with 20 mg of purified GST-Flk-1-D fusion protein in 100mM sodium bicarbonate (pH 9.6) buffer overnight at 4 °C. • 2. Wash the column once with PBS. • 3. Block the excess sites on the column with 2 M glycine for 2 hours at 4°C. • 4. Wash the column with PBS. • 5. Incubate the column with Rabbit anti-Flk-1D production bleed for 2 hours at 4 °C. • 6. Wash the column with PBS. • 7. Elute antiserum with 100 mM Citric Acid, pH3.0 and neutralize the eluate immediately with 2 M Tris, pH 9.0. • 8. Dialyize the eluate against PBS overnight at 4 °C with 3 changes of buffer (sample to buffer ratio is 1:100). • 9. Adjust the dialyized antiserum to 5% glycerol and store at -80 °C in small aliquotes. • q.
Protocol. The following protocol was used for conducting the assay: • 1. Coat Corning 96-well elisa plates with 1.0µg per well Cappel Anti-rabbit IgG antibody in 0.1M Na2CO3 pH 9.6. Bring final volume to 150 µl per well. Coat plates overnight at 4°C. Plates can be kept up to two weeks when stored at 4°C. • 2. Grow cells in Growth media(DMEM, supplemental with 2.0mM L-Glutamine, 10% FBS) in suitable culture dishes until confluent at 37°C, 5% CO2. • 3. Harvest cells by trypsinization and seed in Corning 25850 polystyrene 96-well roundbottom cell plates, 25.000 cells/well in 200µl of growth media. • 4. Grow cells at least one day at 37°C, 5% CO2. • 5. Wash cells with D-PBS 1X. • 6. Add 200µl/well of starvation media (DMEM, 2.0mM 1-Glutamine, 0.1% FBS). Incubate overnight at 37°C, 5% CO2. • 7. Dilute Compounds/Extracts 1:20 in polypropylene 96 well plates using starvation media. Dilute dimethylsulfoxide 1:20 for use in control wells. • 8. Remove starvation media from 96 well cell culture plates and add 162 µl of fresh starvation media to each well. • 9. Add 18µl of 1:20 diluted Compound/Extract dilution (from step 7) to each well plus the 1:20 dimethylsulfoxide dilution to the control wells (+/- VEGF), for a final dilution of 1:200 after cell stimulation. […]

T1 sequence (P35918 20-1345): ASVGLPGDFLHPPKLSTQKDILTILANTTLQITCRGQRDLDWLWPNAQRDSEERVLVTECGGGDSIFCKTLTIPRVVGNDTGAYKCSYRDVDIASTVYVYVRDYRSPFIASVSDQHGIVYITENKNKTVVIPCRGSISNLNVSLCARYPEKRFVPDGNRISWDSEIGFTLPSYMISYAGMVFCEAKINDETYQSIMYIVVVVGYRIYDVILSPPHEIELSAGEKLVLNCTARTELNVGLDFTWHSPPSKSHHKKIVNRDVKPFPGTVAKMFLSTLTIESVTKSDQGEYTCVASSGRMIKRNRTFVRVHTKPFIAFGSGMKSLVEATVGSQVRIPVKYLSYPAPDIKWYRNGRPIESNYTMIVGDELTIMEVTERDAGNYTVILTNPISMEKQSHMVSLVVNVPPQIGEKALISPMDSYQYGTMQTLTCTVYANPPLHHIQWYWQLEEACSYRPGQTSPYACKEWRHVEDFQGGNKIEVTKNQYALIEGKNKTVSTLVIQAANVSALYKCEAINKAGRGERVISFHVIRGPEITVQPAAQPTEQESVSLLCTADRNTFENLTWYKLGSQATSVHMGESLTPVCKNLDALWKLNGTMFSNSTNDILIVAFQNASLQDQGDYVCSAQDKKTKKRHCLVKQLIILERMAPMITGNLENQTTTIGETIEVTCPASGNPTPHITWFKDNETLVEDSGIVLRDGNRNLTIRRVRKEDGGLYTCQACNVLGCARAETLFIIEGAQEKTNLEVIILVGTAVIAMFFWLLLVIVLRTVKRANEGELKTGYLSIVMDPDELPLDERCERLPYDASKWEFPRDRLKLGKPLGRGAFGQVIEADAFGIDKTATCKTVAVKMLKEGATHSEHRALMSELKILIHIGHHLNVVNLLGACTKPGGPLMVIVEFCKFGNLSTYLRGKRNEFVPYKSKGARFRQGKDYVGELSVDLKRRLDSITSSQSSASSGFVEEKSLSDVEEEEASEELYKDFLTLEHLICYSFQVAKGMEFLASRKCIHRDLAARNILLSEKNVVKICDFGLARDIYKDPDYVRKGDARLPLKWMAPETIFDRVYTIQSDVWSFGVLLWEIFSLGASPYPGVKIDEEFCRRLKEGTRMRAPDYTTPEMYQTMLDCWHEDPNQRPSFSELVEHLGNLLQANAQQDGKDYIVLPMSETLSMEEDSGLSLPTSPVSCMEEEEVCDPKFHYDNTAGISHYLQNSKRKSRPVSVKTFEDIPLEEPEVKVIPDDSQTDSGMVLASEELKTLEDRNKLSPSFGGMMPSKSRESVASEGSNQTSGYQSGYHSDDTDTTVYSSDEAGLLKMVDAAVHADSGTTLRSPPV
Chain of PDGF-R (P09619 33-1106, species assumed): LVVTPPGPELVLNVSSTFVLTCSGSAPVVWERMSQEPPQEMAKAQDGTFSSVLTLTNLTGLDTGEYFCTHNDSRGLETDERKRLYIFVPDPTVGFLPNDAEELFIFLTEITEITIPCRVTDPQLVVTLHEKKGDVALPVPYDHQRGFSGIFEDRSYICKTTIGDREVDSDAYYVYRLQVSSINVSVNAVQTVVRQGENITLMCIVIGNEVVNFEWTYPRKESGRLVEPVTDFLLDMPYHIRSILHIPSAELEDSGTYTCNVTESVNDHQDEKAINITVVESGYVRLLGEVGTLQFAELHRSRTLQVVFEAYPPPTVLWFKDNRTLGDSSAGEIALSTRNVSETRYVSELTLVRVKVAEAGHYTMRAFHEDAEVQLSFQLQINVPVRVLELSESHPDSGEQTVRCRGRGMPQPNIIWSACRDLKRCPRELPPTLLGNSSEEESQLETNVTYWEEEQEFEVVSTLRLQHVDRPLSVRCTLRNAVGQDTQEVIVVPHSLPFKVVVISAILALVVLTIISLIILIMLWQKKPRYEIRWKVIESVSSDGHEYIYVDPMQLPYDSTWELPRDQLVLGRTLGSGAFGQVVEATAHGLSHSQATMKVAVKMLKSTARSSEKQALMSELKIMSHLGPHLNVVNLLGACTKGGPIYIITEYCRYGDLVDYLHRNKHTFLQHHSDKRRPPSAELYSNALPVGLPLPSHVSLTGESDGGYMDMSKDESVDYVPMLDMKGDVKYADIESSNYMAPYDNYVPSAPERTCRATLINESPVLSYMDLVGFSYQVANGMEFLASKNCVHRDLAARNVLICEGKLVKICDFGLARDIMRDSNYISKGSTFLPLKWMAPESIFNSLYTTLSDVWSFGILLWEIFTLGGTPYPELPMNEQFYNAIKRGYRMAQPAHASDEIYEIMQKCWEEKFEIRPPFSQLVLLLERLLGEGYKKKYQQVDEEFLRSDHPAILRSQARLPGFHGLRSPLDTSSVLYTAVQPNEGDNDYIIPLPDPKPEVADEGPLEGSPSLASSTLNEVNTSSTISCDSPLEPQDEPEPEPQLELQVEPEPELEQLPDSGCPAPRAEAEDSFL

| Compound | PDGF Kinase %Inhibition (PDGF-R) | Fik Kinase %Inhibition (FLK-1 receptor) |
| --- | --- | --- |
| COc1c(C(C)C)cc(C=C2C(=O)Nc3ccc(I)cc32)cc1C(C)C [10732/B03] | 17.4% | 8.2% |
| COc1c(Cl)cc(C=C2C(=O)Nc3ccc(Br)c(C)c32)cc1C(C)(C)C [10732/C09] | 15.4% | 8.0% |
| CC(C)c1cc(C=C2C(=O)Nc3ccc(I)cc32)cc(C(C)C)c1Oc1ccccc1 [10732/B04] | 16.9% | -1.3% |
| COc1c(I)cc(C=C2C(=O)Nc3ccc(I)cc32)cc1C(C)(C)C [10732/B11] | 70.9% | 9.0% |
| COc1c(Br)cc(C=C2C(=O)Nc3ccc(Br)c(C)c32)cc1C(C)(C)C [10732/C07] | 4.3% | 15.4% |
| Cc1c(Br)ccc2c1C(=Cc1ccc([N+](=O)[O-])o1)C(=O)N2 [10718/C11] |  | 11.4% |
| CC(C)(C)c1cc(C=C2C(=O)Nc3ccc(I)cc32)cc(Br)c1OCc1ccccc1 [10732/B08] | 16.9% | 8.0% |
| Cc1cc2occ(C=C3C(=O)Nc4ccc(S(=O)(=O)N5CCOCC5)cc43)c(=O)c2cc1C [10731/F03] | 11.8% | 7.9% |
| Cc1c(Br)ccc2c1C(=Cc1ccco1)C(=O)N2 [10718/C10] |  | -11.9% |
| CCOC(=O)CCc1c(C(=O)OCC)[nH]c(C=C2C(=O)Nc3ccc(S(=O)(=O)NC)cc32)c1CC(=O)OCC [10718/D05] |  | 11.5% |
| CNS(=O)(=O)c1ccc2c(c1)C(=Cc1cc(Br)c(OC)c(C(C)(C)C)c1)C(=O)N2 [10732/D07] | -3.8% | 14.7% |
| CNS(=O)(=O)c1ccc2c(c1)C(=Cc1ccc3ccccc3c1O)C(=O)N2 [10718/D04] |  | 6.4% |
| CCOC(=O)c1c(C)[nH]c(C=C2C(=O)Nc3ccc(S(=O)(=O)NC)cc32)c1C [10718/D02] |  | 13.3% |
| CC(C)(C)c1cc(C=C2C(=O)Nc3ccc(I)cc32)ccc1OCc1ccccc1 [10732/B06] | -12.4% | 8.1% |
| O=C1Nc2ccc(CCCl)cc2C1=Cc1coc2ccc([N+](=O)[O-])cc2c1=O [10731/G07] | 40.8% | 31.6% |
| CNS(=O)(=O)c1ccc2c(c1)C(=Cc1c[nH]c3ccc(OC)cc13)C(=O)N2 [10731/D09] | -2.0% | 6.1% |
| O=C1Nc2ccc(CCCl)cc2C1=Cc1c[nH]c(=O)[nH]c1=O [10731/G08] | -13.9% | 18.2% |
| CC(C)c1cc(C=C2C(=O)Nc3c(Br)cc(Br)cc32)cc(C(C)C)c1Oc1ccccc1 [10732/A04] | -9.4% | -14.1% |
| COc1ccc2[nH]cc(C=C3C(=O)Nc4ccc(S(=O)(=O)N5CCOCC5)cc43)c2c1 [10731/F09] | 15.6% | 2.3% |
| Cc1c(Br)ccc2c1C(=CC(c1cccs1)C(F)(F)F)C(=O)N2 (stereo not drawn) [10732/C02] | 7.3% | 11.9% |
| COc1ccc(C=C2C(=O)Nc3ccc(I)cc32)cc1C(C)(C)C [10732/B05] | 21.9% | 2.8% |

| Compound | PDGF Kinase %Inhibition (PDGF-R) | Fik Kinase %Inhibition (FLK-1 receptor) |
| --- | --- | --- |
| CC(C)(C)c1cc(C=C2C(=O)Nc3c(Br)cc(Br)cc32)ccc1OCc1ccccc1 [10732/A06] | 12.3% | -0.0% |
| Cc1c(Br)ccc2c1C(=Cc1ccc(OCc3ccccc3)c(C(C)(C)C)c1)C(=O)N2 [10732/C06] | 5.3% | 11.8% |
| COc1c(C(C)C)cc(C=C2C(=O)Nc3c(Br)cc(Br)cc32)cc1C(C)C [10732/A03] | -3.8% | -9.9% |
| CNS(=O)(=O)c1ccc2c(c1)C(=Cc1cc(Cl)c(OC)c(C(C)(C)C)c1)C(=O)N2 [10732/D09] | 15.9% | 15.2% |
| CNS(=O)(=O)c1ccc2c(c1)C(=Cc1coc3ccc([N+](=O)[O-])cc3c1=O)C(=O)N2 [10731/D07] | 2.7% | 12.3% |
| COc1ccc2[nH]cc(C=C3C(=O)Nc4ccc(S(=O)(=O)Nc5ccc(C(F)(F)F)cc5)cc43)c2c1 [10731/E09] | 23.2% | 52.5% |
| CNS(=O)(=O)c1ccc2c(c1)C(=Cc1cc(Br)c(OCc3ccccc3)c(C(C)(C)C)c1)C(=O)N2 [10732/D08] | 30.5% | 33.3% |
| CNS(=O)(=O)c1ccc2c(c1)C(=Cc1coc3ccc(C(C)C)cc3c1=O)C(=O)N2 [10731/D05] | 46.0% | 32.7% |
| Cc1ccc2occ(C=C3C(=O)Nc4ccc(S(=O)(=O)Nc5ccc(C(F)(F)F)cc5)cc43)c(=O)c2c1 [10731/E06] | -12.0% | 2.6% |
| C=C(C)C1CC=C(C=C2C(=O)Nc3ccc(S(=O)(=O)NC)cc32)CC1 (stereo not drawn) [10731/D04] | 6.5% | 9.3% |
| C=C(C)C1CC=C(C=C2C(=O)Nc3ccc(S(=O)(=O)Nc4ccc(C(F)(F)F)cc4)cc32)CC1 (stereo not drawn) [10731/E04] | 30.8% | 23.8% |
| COc1c(C(C)C)cc(C=C2C(=O)Nc3ccc(Br)c(C)c32)cc1C(C)C [10732/C03] | 7.3% | 14.7% |
| CNS(=O)(=O)c1ccc2c(c1)C(=Cc1cc(OC)cc(Br)c1O)C(=O)N2 [10718/D03] |  | 1.1% |
| CNS(=O)(=O)c1ccc2c(c1)C(=Cc1cc(C(C)C)c(Oc3ccccc3)c(C(C)C)c1)C(=O)N2 [10732/D04] | 50.7% | 24.6% |
| Cc1ccc2occ(C=C3C(=O)Nc4ccc(S(=O)(=O)N5CCOCC5)cc43)c(=O)c2c1 [10731/F06] | -23.4% | 2.2% |
| Cc1cc2occ(C=C3C(=O)Nc4ccc(CCCl)cc43)c(=O)c2cc1C [10731/G03] | 6.5% | 12.9% |
| CNS(=O)(=O)c1ccc2c(c1)C(=Cc1cc(Cl)c(OCc3ccccc3)c(C(C)(C)C)c1)C(=O)N2 [10732/D10] | 24.5% | 25.5% |
| O=C1Nc2ccc(S(=O)(=O)N3CCOCC3)cc2C1=Cc1coc2ccc([N+](=O)[O-])cc2c1=O [10731/F07] | 1.3% | 13.3% |
| CC(C)c1ccc2occ(C=C3C(=O)Nc4ccc(S(=O)(=O)N5CCOCC5)cc43)c(=O)c2c1 [10731/F05] | 20.3% | 17.6% |
| CCOC(=O)c1cc(C=C2C(=O)Nc3ccc(S(=O)(=O)NC)cc32)oc1C [10718/D06] |  | 15.8% |
